Data on five compounds can be found in patent publication EP3046573B1, “AMYLIN ANALOGUES” (Zealand Pharma A/S, priority 2013, dated 2015).

Structures are written as SMILES. Numbered stars: 1 amine (or outer) side, 2 acyl side, 3 side chain; on linkers, the order of the positions; unused ones are H or OH. Bridge positions count the residues as written; N and C are the ends. Square brackets hold non-standard residues; d marks the D form. Peptide text beside a SMILES is read from it. * marks the point of attachment. C20 diacid = O=C(O)CCCCCCCCCCCCCCCCCCC(=O)*; γGlu = O=C(O)[C@H](CCC(=O)[*:2])N[*:1]; NMeI = CC[C@H](C)[C@H](NC)C(=O)O; Sar = CNCC(=O)O

This series is described as follows: Pharmacokinetic (PK) profiling in rats. The class given is in vivo. The settings on record: male, Sprague Dawley, rat, plasma, single sc bolus, 100 nmol/kg (18, NN96), 20 nmol/kg (72, 76), 30 nmol/kg (73, 82, 118, 162, 166, 172); for CL/F: apparent clearance; for half-life: terminal elimination half-life, read-out: t½ (converted). As for the experimental part:
Sprague Dawley male rats were given a single subcutaneous (sc) bolus of each peptide to be tested at doses as specified below..
Study A: Following the administration of a 100 nmol/kg dose of a test peptide of the invention (Compound 18) and a comparison pramlintide analogue NN96 (see Example 5, above), respectively, blood samples were drawn from the tail vein at 0.5, 3, 8, 15, 36, 60 and 81 hours post-dosing. 4 rats were used (2 rats per compound). The rats were euthanized immediately after the last blood sampling by overdose of O2/CO2.
Study B: 20 nmol/kg doses of Compound 72 and Compound 76, respectively, of the invention were administered. Blood samples were drawn by sublingual bleeding prior to dosing and at 2, 6, 12, 24, 48, 72 and 96 hours after dosing. 4 rats were used (2 rats per compound). The rats were euthanized immediately after the last blood sampling by overdose of O2/CO2.
Study C: 30 nmol/kg doses of Compound 73, Compound 82 and Compound 118, respectively, of the invention were administered. Blood samples were drawn from the tail vein prior to dosing and at 24, 48, 72 and 96 hours after dosing. Blood samples were taken from two rats at each time point, and only 2 blood samples were drawn from each rat, i.e. 8 rats were used for each compound. The rats were euthanized immediately after the last blood sampling by concussion and cervical dislocation.
Study D: 30 nmol/kg doses of Compound 162, Compound 166 and Compound 172 were administered. Blood samples were drawn from the tail vein prior to dosing and at 24, 48, 72, 96 and 168 hours after dosing. Blood samples were taken from two rats at each time point, and only 2 blood samples were drawn from each rat, i.e. 10 rats were used for each compound. The rats were euthanized immediately after the last blood sampling by concussion and cervical dislocation.
The dosing vehicle used for each test peptide was a mannitol-containing histidine buffer (pH 7.0). Plasma samples were analyzed after precipitation with ethanol by liquid chromatography mass spectrometry (LC-MS/MS). Mean plasma concentrations were used for calculation of the pharmacokinetic parameters using the non-compartmental approach in Phoenix WinNonlin 6.3.
Plasma terminal elimination half-life (t½) was determined as In(2)/λz, where λz is the magnitude of the slope of the log linear regression of the log concentration versus time profile during the terminal phase. Apparent clearance (CL/F) was determined as dose/AUCinf (sc), where AUCinf is the area under the plasma concentration vs. time curve extrapolated to infinity (AUCinf = AUClast + Clast/λz, where Clast is the last observed plasma concentration).

Broadly, the CL/F is the apparent clearance, not corrected for the fraction that reaches the circulation. Take `CC[C@H](C)[C@@H](C(=O)N[C@@H](CC(C)C)C(=O)N[C@@H](CO)C(=O)N[C@@H](CO)C(=O)N[C@H](C(=O)N[C@@H](CC(=O)O)C(=O)N[C@H](C(=O)NCC(=O)N[C@@H](CO)C(=O)N[C@@H](CC(=O)O)C(=O)N[C@H](C(=O)N1CCC[C@H]1C(N)=O)[C@@H](C)O)C(C)C)[C@@H](C)O)N(C)C(=O)[C@H](C)NC(=O)CN(C)C(=O)[C@H](Cc1ccccc1)NC(=O)[C@H](CO)NC(=O)[C@H](CO)NC(=O)[C@H](CO)NC(=O)[C@H](CO)NC(=O)[C@H](CCCNC(=N)N)NC(=O)[C@H](Cc1c[nH]cn1)NC(=O)[C@H](CC(C)C)NC(=O)[C@H](Cc1ccccc1)NC(=O)[C@H](CCC(=O)O)NC(=O)[C@H](C)NC(=O)[C@H](CC(C)C)NC(=O)[C@H](CCCNC(=N)N)NC(=O)[C@H](CCC(N)=O)NC(=O)[C@@H](NC(=O)[C@H](C)NC(=O)[C@@H]1CSSC[C@H](NC(=O)[C@H](CCCNC(=N)N)NC(=O)CC[C@H](NC(=O)CCCCCCCCCCCCCCCCCCC(=O)O)C(=O)O)C(=O)N[C@@H](CC(N)=O)C(=O)N[C@@H]([C@@H](C)O)C(=O)N[C@@H](C)C(=O)N[C@@H]([C@@H](C)O)C(=O)N1)[C@@H](C)O` [Compound 73, [19CD]-isoGlu-RC()NTATC()ATQRLAEFLHRSSSSF-Gly(Me)-A-Ile(Me)-LSSTDVGSDTP-NH2] ({C20 diacid-γGlu}-RCNTATCATQRLAEFLHRSSSSF[Sar]A[NMeI]LSSTDVGSDTP-NH2; disulfide 2-7): the CL/F is 3.06 mL/h/kg and the half-life is 55.4 h.

Regarding `CC[C@H](C)[C@@H](C(=O)N[C@@H](CC(C)C)C(=O)N[C@@H](CO)C(=O)N[C@@H](CO)C(=O)N[C@H](C(=O)N[C@@H](CCC(=O)O)C(=O)N[C@H](C(=O)NCC(=O)N[C@@H](CO)C(=O)N[C@@H](CCC(=O)O)C(=O)N[C@H](C(=O)N1CCC[C@H]1C(N)=O)[C@@H](C)O)C(C)C)[C@@H](C)O)N(C)C(=O)[C@H](C)NC(=O)CN(C)C(=O)[C@H](Cc1ccccc1)NC(=O)[C@H](CO)NC(=O)[C@H](CO)NC(=O)[C@H](CO)NC(=O)[C@H](CO)NC(=O)[C@H](CCCNC(=N)N)NC(=O)[C@H](Cc1c[nH]cn1)NC(=O)[C@H](CC(C)C)NC(=O)[C@H](Cc1ccccc1)NC(=O)[C@H](CCC(=O)O)NC(=O)[C@H](C)NC(=O)[C@H](CC(C)C)NC(=O)[C@H](CCCNC(=N)N)NC(=O)[C@H](CCC(N)=O)NC(=O)[C@@H](NC(=O)[C@H](C)NC(=O)[C@@H]1CSSC[C@H](NC(=O)[C@H](CCCNC(=N)N)NC(=O)CC[C@H](NC(=O)CCCCCCCCCCCCCCCCCCC(=O)O)C(=O)O)C(=O)N[C@@H](CC(N)=O)C(=O)N[C@@H]([C@@H](C)O)C(=O)N[C@@H](C)C(=O)N[C@@H]([C@@H](C)O)C(=O)N1)[C@@H](C)O` [Compound 76, [19CD]-isoGlu-RC()NTATC()ATQRLAEFLHRSSSSF-Gly(Me)-A-Ile(Me)-LSSTEVGSETP-NH2] ({C20 diacid-γGlu}-RCNTATCATQRLAEFLHRSSSSF[Sar]A[NMeI]LSSTEVGSETP-NH2; disulfide 2-7), the apparent clearance (CL/F) is 3.53 mL/h/kg and the half-life was 37.3 h.

Regarding `CC[C@H](C)[C@@H](C(=O)N[C@@H](CC(C)C)C(=O)N[C@@H](CO)C(=O)N[C@@H](CO)C(=O)N[C@H](C(=O)N[C@@H](CCC(=O)O)C(=O)N[C@H](C(=O)NCC(=O)N[C@@H](CO)C(=O)N[C@@H](CCC(=O)O)C(=O)N[C@H](C(=O)N1CCC[C@H]1C(N)=O)[C@@H](C)O)C(C)C)[C@@H](C)O)N(C)C(=O)[C@H](C)NC(=O)CN(C)C(=O)[C@H](Cc1ccccc1)NC(=O)[C@H](CO)NC(=O)[C@H](CO)NC(=O)[C@H](CCCNC(=N)N)NC(=O)[C@H](Cc1c[nH]cn1)NC(=O)[C@H](CC(C)C)NC(=O)[C@H](Cc1ccccc1)NC(=O)[C@H](CCC(=O)O)NC(=O)[C@H](C)NC(=O)[C@H](CC(C)C)NC(=O)[C@H](CCCNC(=N)N)NC(=O)[C@H](CCC(N)=O)NC(=O)[C@@H](NC(=O)[C@H](C)NC(=O)[C@@H]1CSSC[C@H](NC(=O)[C@H](CCCNC(=N)N)NC(=O)CC[C@H](NC(=O)CCCCCCCCCCCCCCCCCCC(=O)O)C(=O)O)C(=O)N[C@@H](CC(N)=O)C(=O)N[C@@H]([C@@H](C)O)C(=O)N[C@@H](C)C(=O)N[C@@H]([C@@H](C)O)C(=O)N1)[C@@H](C)O` [Compound 82, [19CD]-isoGlu-RC()NTATC()ATQRLAEFLHRSSF-Gly(Me)-A-Ile(Me)-LSSTEVGSETP-NH2] ({C20 diacid-γGlu}-RCNTATCATQRLAEFLHRSSF[Sar]A[NMeI]LSSTEVGSETP-NH2; disulfide 2-7), the apparent clearance (CL/F) is 4.01 mL/h/kg and the half-life is 44.2 h.

On to `CC[C@H](C)[C@@H](C(=O)N[C@@H](CC(C)C)C(=O)N[C@@H](CO)C(=O)N[C@@H](CO)C(=O)N[C@H](C(=O)N[C@@H](CCC(=O)O)C(=O)N[C@H](C(=O)NCC(=O)N[C@@H](CO)C(=O)N[C@@H](CCC(=O)O)C(=O)N[C@H](C(=O)N1CCC[C@H]1C(N)=O)[C@@H](C)O)C(C)C)[C@@H](C)O)N(C)C(=O)[C@H](C)NC(=O)CN(C)C(=O)[C@H](Cc1ccccc1)NC(=O)[C@H](CO)NC(=O)[C@H](CO)NC(=O)[C@H](CO)NC(=O)[C@H](CO)NC(=O)[C@H](CCCNC(=N)N)NC(=O)[C@H](Cc1c[nH]cn1)NC(=O)[C@H](CC(C)C)NC(=O)[C@H](Cc1ccccc1)NC(=O)[C@H](CCC(=O)O)NC(=O)[C@H](C)NC(=O)[C@H](CC(C)C)NC(=O)[C@H](CCCNC(=N)N)NC(=O)[C@H](C)NC(=O)[C@@H](NC(=O)[C@H](C)NC(=O)[C@@H]1CSSC[C@H](NC(=O)[C@H](CCCNC(=N)N)NC(=O)CC[C@H](NC(=O)CCCCCCCCCCCCCCCCCCC(=O)O)C(=O)O)C(=O)N[C@@H](CC(N)=O)C(=O)N[C@@H]([C@@H](C)O)C(=O)N[C@@H](C)C(=O)N[C@@H]([C@@H](C)O)C(=O)N1)[C@@H](C)O` [Compound 118, [19CD]-isoGlu-RC()NTATC()ATARLAEFLHRSSSSF-Gly(Me)-A-Ile(Me)-LSSTEVGSETP-NH2] ({C20 diacid-γGlu}-RCNTATCATARLAEFLHRSSSSF[Sar]A[NMeI]LSSTEVGSETP-NH2; disulfide 2-7), for which the CL/F is 3.51 mL/h/kg and the half-life is 56.4 h.

With `CC[C@H](C)[C@@H](C(=O)N[C@@H](CC(C)C)C(=O)N[C@@H](CO)C(=O)N[C@@H](CO)C(=O)N[C@H](C(=O)N[C@@H](CCC(=O)O)C(=O)N[C@H](C(=O)NCC(=O)N[C@@H](CO)C(=O)N[C@@H](CCC(=O)O)C(=O)N[C@H](C(=O)N1CCC[C@H]1C(N)=O)[C@@H](C)O)C(C)C)[C@@H](C)O)N(C)C(=O)[C@H](C)NC(=O)CN(C)C(=O)[C@H](Cc1ccccc1)NC(=O)[C@H](CO)NC(=O)[C@H](CO)NC(=O)[C@H](CCCNC(=N)N)NC(=O)[C@H](Cc1c[nH]cn1)NC(=O)[C@H](CC(C)C)NC(=O)[C@H](Cc1ccccc1)NC(=O)[C@H](CCC(=O)O)NC(=O)[C@H](C)NC(=O)[C@H](CC(C)C)NC(=O)[C@H](CCCNC(=N)N)NC(=O)[C@H](CCC(=O)O)NC(=O)[C@@H](NC(=O)[C@H](C)NC(=O)[C@@H]1CSSC[C@H](NC(=O)[C@H](CCCNC(=N)N)NC(=O)CC[C@H](NC(=O)CCCCCCCCCCCCCCCCCCC(=O)O)C(=O)O)C(=O)NCC(=O)N[C@@H]([C@@H](C)O)C(=O)N[C@@H](C)C(=O)N[C@@H]([C@@H](C)O)C(=O)N1)[C@@H](C)O` [Compound 162, [19CD]-isoGlu-RC()GTATC()ATERLAEFLHRSSF-Gly(Me)-A-Ile(Me)-LSSTEVGSETP-NH2] ({C20 diacid-γGlu}-RCGTATCATERLAEFLHRSSF[Sar]A[NMeI]LSSTEVGSETP-NH2; disulfide 2-7), the apparent clearance (CL/F) is 5.92 mL/h/kg and the half-life was 29.8 h.
